These molecules were tested on CCO cells (assay: Compounds cytotoxicity assay (CCK-8 cell viability)). Conditions: channel catfish, 72 h.
Type: cell-based
Protocol: The cytotoxicity effects of the selected compounds were detected in CCO cells by the cell viability assay. In brief, the CCO cells were seeded in 96-well plates and cultured to reach approximately 90% confluence in each well at 28°C. Subsequently, the monolayer cells were exposed to a maintenance medium with the tested compounds at different concentrations or DMSO for 72 h. Cell Counting Kit-8 (Beyotime, China) was used to measure the cell viability according to the manufacturer’s protocol after 72 h incubation. The optical density at 450 nm was measured using a Spark microplate reader (TECAN, Switzerland). Then, the maximum safe concentration (≥ 90% cell survived, SC90) of compounds to CCO cells was calculated according to the cell viability.
All data were analyzed with GraphPad Prism 8.0. Viral titers were log10 transformed prior to statistical analyses. The SC90 values were calculated using probit analysis. The data are expressed as the arithmetic mean ± standard deviation (SD) and were analyzed by one-way ANOVA with multiple comparisons test. Statistical significance was defined as *p < 0.05, **p < 0.01.
Figure 1 Cytotoxicity assay. The CCO cells were treated with 12 tested compounds with different concentrations in a 96-well plate for 72 h, and then the cell viability was measured by CCK-8. (A) Kaempferol, (B) Tannic acid, (C) P-Coumaric acid, (D) Magnolol, (E) Baicalein, (F) Genistein, (G) Mangiferin, (H) Rosmarinic acid, (I) Artemisinin, (J) Myricetin, (K) Ginkgolic acid, (L) Shikonin. Data represent mean ± SD normalized to values for DMSO treated group. The SC90 was analyzed and calculated using probit analysis. TEXT PRINTED IN THE PICTURE: (A) Kaempferol: SC90 = 47.53 μg/ml | (B) Tannic acid: SC90 = 90.02 μg/ml | (C) P-Coumaric acid: SC90 ≥500 μg/ml | (D) Magnolol: SC90 = 10.02 μg/ml | (E) Baicalein: SC90 = 29.73 μg/ml | (F) Genistein: SC90 = 13.66 μg/ml | (G) Mangiferin: SC90 ≥500 μg/ml | (H) Rosmarinic acid: SC90 = 46.37 μg/ml | (I) Artemisinin: SC90 ≥500 μg/ml | (J) Myricetin: SC90 = 346.19 μg/ml | (K) Ginkgolic acid: SC90 = 10.89 μg/ml | (L) Shikonin: SC90 = 54.44 μg/ml DOUBTS OF THE COPYIST ABOUT THIS PICTURE: All SC90 values are in small print, so 3, 5, 6, 8 and 9 are hard to tell apart / Kaempferol, SC90: 47.53 (5 or 3 uncertain) / Tannic acid, SC90: 90.02 (9 or 8 uncertain) / Baicalein, SC90: 29.73 (9 or 3 uncertain) / Genistein, SC90: 13.66 (3 and 6 uncertain) / Rosmarinic acid, SC90: 46.37 (6 and 3 uncertain) / Myricetin, SC90: 346.19 (3, 6 and 9 uncertain) / Ginkgolic acid, SC90: 10.89 (8 and 9 uncertain) / Shikonin, SC90: 54.44 (5 uncertain) / P-Coumaric acid, Mangiferin, Artemisinin, SC90: sign ≥ or >; 500 (5 uncertain)
With `O=c1c(O)c(-c2cc(O)c(O)c(O)c2)oc2cc(O)cc(O)c12` [Myricetin] the “SC90 (maximum safe concentration, ≥ 90% cell survived)” value was 346.19 µg/mL. `O=c1cc(-c2ccccc2)oc2cc(O)c(O)c(O)c12` [Baicalein] was tested, and the “SC90 (maximum safe concentration, ≥ 90% cell survived)” value was 29.73 µg/mL. In the case of `C[C@@H]1CC[C@H]2[C@@H](C)C(=O)O[C@@H]3O[C@@]4(C)CC[C@@H]1[C@]32OO4` [Artemisinin, reference compound], the “SC90 (maximum safe concentration, ≥ 90% cell survived)” value is reported as ≥ 500 µg/mL.

Reference: paper PMC10725991, “Kaempferol is a novel antiviral agent against channel catfish virus infection through blocking viral attachment and penetration in vitro” (Frontiers in Veterinary Science, 2023)
